For 7 molecules, GI50 and TGI results are on record in PubChem BioAssay (NCI).

Among the test systems are CAKI-1 renal; RPMI-8226 leukemia; RXF 393 renal; SF-268 CNS; HCT-15 colon; SW-620 colon; SN12C renal; SK-OV-3 ovarian; NCI-H23 lung; UO-31 renal.
Experiment in all cases: inhibition of tumour cell growth, NCI panel, 48 h

Molecules are shown by their SMILES.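 Assay format: 96-well plates, 48-hour exposure. The concentration for 50% growth inhibition is given as GI50. TGI denotes the concentration required for complete inhibition of growth.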

In the case of `O=C(c1ccccc1)n1c(-c2ccccc2)cs/c1=N\S(=O)(=O)c1ccc(N2N=C3c4ccccc4CC3C2c2cccs2)cc1` (stereo not given), the GI50 with CAKI-1 renal is 38 µM; with RPMI-8226 leukemia, 32.3 µM; in the assay with RXF 393 renal it was 37.1 µM; with SF-268 CNS it was greater than 100 µM; with HCT-15 colon it was 61.4 µM; in the assay with SW-620 colon, 58.8 µM. Moreover, the GI50 was 44.4 µM with SN12C renal, greater than 100 µM in the assay on SK-OV-3 ovarian, 13 µM with NCI-H23 lung and 98.1 µM with UO-31 renal. The TGI in the assay on CAKI-1 renal, in the assay with RPMI-8226 leukemia, with RXF 393 renal, in the assay with SF-268 CNS, with HCT-15 colon and in the assay with SW-620 colon was greater than 100 µM in each case. The TGI is greater than 100 µM in the assay with SN12C renal, greater than 100 µM with SK-OV-3 ovarian, 39.4 µM in the assay with NCI-H23 lung and greater than 100 µM in the assay on UO-31 renal.
In the case of `Cc1ccc(-c2nc(-c3cn(C)c4ncccc34)cs2)cc1`, the GI50 in the assay with CAKI-1 renal is 2.27 µM; in the assay with RPMI-8226 leukemia it was 7.37 µM; with RXF 393 renal, 2.99 µM; with SF-268 CNS, 7.83 µM; with HCT-15 colon it was 3.01 µM; with SW-620 colon it was 1.95 µM. Moreover, the GI50 with SN12C renal was 5 µM; in the assay on SK-OV-3 ovarian it was 6.86 µM; in the assay with NCI-H23 lung, 7.12 µM; with UO-31 renal, 8.96 µM. In addition, the TGI in the assay on CAKI-1 renal is 15.2 µM; with RPMI-8226 leukemia, greater than 69.8 µM; in the assay on RXF 393 renal, 13.7 µM; with SF-268 CNS it was 39.2 µM; in the assay with HCT-15 colon, 21.3 µM; in the assay on SW-620 colon it was 8.91 µM. In addition, the TGI in the assay with SN12C renal was 22.8 µM; in the assay with SK-OV-3 ovarian it was 27.5 µM; with NCI-H23 lung it was 31.3 µM; in the assay on UO-31 renal, 40.5 µM.
Take `O=c1cc(-c2ccccc2)oc2cc(OC/C(=N/O)c3ccc(F)cc3)ccc12`: the GI50 was 11.8 µM in the assay with CAKI-1 renal; 15.9 µM with RPMI-8226 leukemia; 14 µM in the assay on RXF 393 renal; 19.7 µM with SF-268 CNS; 18.5 µM in the assay on HCT-15 colon; 48.1 µM in the assay with SW-620 colon. Also, the GI50 with SN12C renal is 15.5 µM; with SK-OV-3 ovarian it was 47.9 µM; in the assay on NCI-H23 lung, 31.8 µM; in the assay with UO-31 renal, 14.7 µM. For the same molecule, the TGI in the assay on CAKI-1 renal is 38.6 µM; in the assay on RPMI-8226 leukemia, greater than 50 µM; in the assay on RXF 393 renal it was 40.2 µM; with SF-268 CNS it was greater than 50 µM; in the assay with HCT-15 colon it was greater than 50 µM; with SW-620 colon, greater than 50 µM. In addition, the TGI in the assay with SN12C renal, in the assay on SK-OV-3 ovarian, in the assay on NCI-H23 lung and in the assay with UO-31 renal was greater than 50 µM in each case.
`Nc1nc(=O)n([C@@H]2CS[C@H](CO)O2)cc1F`: the GI50 with CAKI-1 renal, in the assay with RPMI-8226 leukemia, with RXF 393 renal, in the assay on SF-268 CNS, in the assay on HCT-15 colon and in the assay with SW-620 colon was greater than 100 µM in each case. The GI50 in the assay with SN12C renal, with SK-OV-3 ovarian, in the assay with NCI-H23 lung and in the assay with UO-31 renal was greater than 100 µM throughout. The TGI with CAKI-1 renal, in the assay with RPMI-8226 leukemia, in the assay with RXF 393 renal, with SF-268 CNS, in the assay on HCT-15 colon and in the assay with SW-620 colon was greater than 100 µM throughout. Besides, the TGI in the assay with SN12C renal, in the assay on SK-OV-3 ovarian, with NCI-H23 lung and in the assay with UO-31 renal was greater than 100 µM each time.
Consider `C[C@]12CCNC(=O)C=C1CC[C@@H]1C2CC[C@@]2(C)C1CC[C@@H]2OC(=O)COc1ccc(N(CCCl)CCCl)cc1` (stereo not given in full), for which the TGI with CAKI-1 renal worked out at 23 µM; in the assay on RPMI-8226 leukemia, 47.6 µM; in the assay with RXF 393 renal, 18 µM; with SF-268 CNS, 23.8 µM; in the assay with HCT-15 colon it was 13.1 µM; in the assay on SW-620 colon it was 16.5 µM. Also, the TGI was determined as 21.8 µM in the assay on SN12C renal, 21.7 µM in the assay on SK-OV-3 ovarian, 20.2 µM in the assay on NCI-H23 lung and 18.9 µM with UO-31 renal.
With `COc1cc(C2C3=C(COC3=O)N(CCO)c3cc4c(cc32)OCO4)cc(OC)c1O` (stereo not given), the GI50 with CAKI-1 renal was 5.4 µM; in the assay with RPMI-8226 leukemia it was 1.57 µM; in the assay with RXF 393 renal it was 0.576 µM; in the assay on SF-268 CNS, 2.18 µM; in the assay on HCT-15 colon it was 8.01 µM; with SW-620 colon, 1.71 µM. Further, the GI50 was greater than 12.1 µM in the assay with SN12C renal, 2.03 µM with SK-OV-3 ovarian, 1.84 µM in the assay with NCI-H23 lung and 2.02 µM in the assay with UO-31 renal. Besides, the TGI with CAKI-1 renal is greater than 41 µM; in the assay on RPMI-8226 leukemia, greater than 50 µM; in the assay on RXF 393 renal, 2.11 µM; with SF-268 CNS, greater than 50 µM; in the assay on HCT-15 colon, greater than 50 µM; in the assay on SW-620 colon, greater than 50 µM. The TGI is greater than 50 µM in the assay with SN12C renal, greater than 26.7 µM in the assay with SK-OV-3 ovarian, greater than 38 µM in the assay on NCI-H23 lung and greater than 37.2 µM in the assay on UO-31 renal.
As for `COc1ccc(Nc2nc3cc(N)cc(N)c3nc2-c2ccccc2)cc1OC`, the GI50 was 18.3 µM in the assay with CAKI-1 renal; 7.95 µM in the assay on RPMI-8226 leukemia; 8.15 µM in the assay on RXF 393 renal; 14.2 µM with SF-268 CNS; 29 µM in the assay with HCT-15 colon; 15.5 µM in the assay on SW-620 colon. The GI50 in the assay on SN12C renal is 16.7 µM; in the assay on SK-OV-3 ovarian, 38.2 µM; with NCI-H23 lung it was 26.3 µM; in the assay on UO-31 renal it was 28.1 µM. For the same molecule, the TGI in the assay on CAKI-1 renal is 66 µM; in the assay with RPMI-8226 leukemia, 28.3 µM; in the assay on RXF 393 renal, 49.4 µM; in the assay on SF-268 CNS, 47.1 µM; in the assay on HCT-15 colon it was greater than 100 µM; with SW-620 colon, 35.9 µM. Besides, the TGI with SN12C renal was 44.1 µM; in the assay with SK-OV-3 ovarian, 87.5 µM; in the assay on NCI-H23 lung, 80.1 µM; in the assay with UO-31 renal, greater than 100 µM.
